# According to US10227357B2, “Compounds and methods for kinase modulation, and indications therefor” (Plexxikon Inc., priority 2012, dated 2019):
# How the values were obtained:
# c-kit kinase = biological target: T1, c-kit kinase (Homo sapiens, UniProt P10721); assay: c-Kit biochemical assay, AlphaScreen, 10 μM ATP; conditions: c-kit biochemical inhibitory activity; read-out: Biochemical activity (IC50 μM) Kit
# T1 construct: The c-kit (or kinase domain thereof) is an active kinase in AlphaScreen; poly-Histidine tag (in-house protein only) (cleaved yes); host or cells: E. coli BL21(DE3)RIL, co-expressed with PTP1B
# Summary of the method: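 His-tagged c-Kit expressed in E. coli with co-expressed PTP1B (dephosphorylated), tag removed; 0.1 ng per reaction with biotinylated-peptide substrate in 50 mM HEPES pH 7.2, 5 mM MgCl2, 5 mM MnCl2, 5% DMSO, 10 μM ATP, 1 h at room temperature. Phosphorylation detected by AlphaScreen (streptavidin donor, PY20 acceptor beads); IC50 from 8-point 1:3 dilution series.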
# c-kit mutant D816V = biological target: T2, c-kit mutant D816V (Homo sapiens, UniProt P10721, D816V/DEL694-753); assay: c-Kit mutant D816V biochemical assay, AlphaScreen; conditions: c-kit D816V biochemical inhibitory activity; read-out: Biochemical activity (IC50 μM) Kit D816V
# T2 construct: residues 551-934, kinase insertion domain residues 694-753 deleted; 6x-histidine (N); made in house; host or cells: E. coli Arctic Express (DE3) RIL (Stratagene)
# Summary of the method: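 Purified His-tagged c-Kit D816V (E. coli-expressed) assayed in 25 mM HEPES pH 7.2 with Mg/Mn, 5% DMSO and 10 μM ATP, 30 min at room temperature, 8-point 1:3 dilutions. Phosphorylation detected by AlphaScreen with streptavidin donor and PY20 acceptor beads; IC50 from signal versus concentration.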
# T1 sequence (P10721 26-976): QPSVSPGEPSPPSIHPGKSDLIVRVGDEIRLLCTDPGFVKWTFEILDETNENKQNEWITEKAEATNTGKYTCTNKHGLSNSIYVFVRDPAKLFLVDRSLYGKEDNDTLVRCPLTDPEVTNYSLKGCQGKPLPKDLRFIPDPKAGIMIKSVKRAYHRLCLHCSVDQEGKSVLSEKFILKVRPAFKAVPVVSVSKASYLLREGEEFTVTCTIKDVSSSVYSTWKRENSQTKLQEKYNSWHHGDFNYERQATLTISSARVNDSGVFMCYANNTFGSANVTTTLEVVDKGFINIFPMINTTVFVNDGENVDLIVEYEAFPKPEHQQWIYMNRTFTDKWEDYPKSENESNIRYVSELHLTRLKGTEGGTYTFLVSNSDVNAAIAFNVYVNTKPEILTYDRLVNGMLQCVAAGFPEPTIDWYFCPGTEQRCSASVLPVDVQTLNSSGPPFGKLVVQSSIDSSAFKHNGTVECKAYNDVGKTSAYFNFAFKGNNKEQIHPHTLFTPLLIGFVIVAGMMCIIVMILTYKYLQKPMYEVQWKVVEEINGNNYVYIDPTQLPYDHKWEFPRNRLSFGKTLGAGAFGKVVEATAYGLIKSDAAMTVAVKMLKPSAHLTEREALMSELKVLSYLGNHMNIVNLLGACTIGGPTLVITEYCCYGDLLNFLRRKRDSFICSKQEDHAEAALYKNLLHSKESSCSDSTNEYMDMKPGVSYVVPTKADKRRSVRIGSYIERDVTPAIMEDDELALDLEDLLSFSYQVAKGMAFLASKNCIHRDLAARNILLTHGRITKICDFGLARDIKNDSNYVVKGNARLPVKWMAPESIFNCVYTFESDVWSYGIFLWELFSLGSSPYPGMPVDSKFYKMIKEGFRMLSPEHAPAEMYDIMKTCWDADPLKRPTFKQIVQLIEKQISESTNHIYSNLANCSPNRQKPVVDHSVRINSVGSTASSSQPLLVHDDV
# T2 sequence (P10721 with tags, fused parts or gaps DEL694-753/D816V): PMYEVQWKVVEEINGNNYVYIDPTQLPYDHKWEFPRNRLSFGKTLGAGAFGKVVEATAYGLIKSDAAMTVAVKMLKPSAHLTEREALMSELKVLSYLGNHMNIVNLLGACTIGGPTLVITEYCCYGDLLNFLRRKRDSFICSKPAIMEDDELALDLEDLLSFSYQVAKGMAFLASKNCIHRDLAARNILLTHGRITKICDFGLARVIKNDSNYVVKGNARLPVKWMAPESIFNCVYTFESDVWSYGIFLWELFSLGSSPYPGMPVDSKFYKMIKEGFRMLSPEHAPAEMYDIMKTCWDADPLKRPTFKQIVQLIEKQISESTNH
Structure (SMILES),IC50 (c-kit kinase),IC50 (c-kit mutant D816V)
"N#Cc1ccc(-c2cc3c(N4CCN(C(=O)NCc5ccc(F)cc5)CC4)ncnc3[nH]2)cc1 [P-0109, 4-[6-(4-cyanophenyl)-7H-pyrrolo[2,3-d]pyrimidin-4-yl]-N-[(4-fluorophenyl)methyl]piperazine-1-carboxamide]",10 to 200 µM,1 to 10 µM
"Cn1cc(-c2cc3ncnc(C4=CC(C)(C)NC(C)(C)C4)c3s2)cn1 [P-0617, 6-(1-methylpyrazol-4-yl)-4-(2,2,6,6-tetramethyl-1,3-dihydropyridin-4-yl)thieno[3,2-d]pyrimidine]",10 to 200 µM,10 to 200 µM
"Cc1n[nH]c2ncnc(-c3ccc(NS(=O)(=O)c4cccc(F)c4)cc3)c12 [P-0440, 3-fluoro-N-[4-(3-methyl-1H-pyrazolo[3,4-d]pyrimidin-4-yl)phenyl]benzenesulfonamide]",1 to 10 µM,0.0001 to 1 µM
"O=S(=O)(Nc1ccc(-c2ncnc3[nH]c(-c4ccc(F)cc4)cc23)cc1F)C1CC1 [P-0410, N-[2-fluoro-4-[6-(4-fluorophenyl)-7H-pyrrolo[2,3-d]pyrimidin-4-yl]phenyl]cyclopropanesulfonamide]",1 to 10 µM,0.0001 to 1 µM
"Cc1ccc(S(=O)(=O)Nc2ccc(-c3ncnc4cc(C5CCNCC5)sc34)cc2)cc1 [P-0592, 4-methyl-N-[4-[6-(4-piperidyl)thieno[3,2-d]pyrimidin-4-yl]phenyl]benzenesulfonamide]",10 to 200 µM,0.0001 to 1 µM
"Cn1cc(-c2cc3c(N4CCN(C(=O)Nc5ccc(OC(F)(F)F)cc5)CC4)ncnc3[nH]2)cn1 [P-0092, 4-[6-(1-methylpyrazol-4-yl)-7H-pyrrolo[2,3-d]pyrimidin-4-yl]-N-[4-(trifluoromethoxy)phenyl]piperazine-1-carboxamide]",0.0001 to 1 µM,0.0001 to 1 µM
"CS(=O)(=O)Nc1ccc(-c2cc3c(N4CCN(C(=O)Nc5ccc(OC(F)(F)F)cc5)CC4)ncnc3[nH]2)cc1 [P-0077, 4-[6-[4-(methanesulfonamido)phenyl]-7H-pyrrolo[2,3-d]pyrimidin-4-yl]-N-[4-(trifluoromethoxy)phenyl]piperazine-1-carboxamide]",0.0001 to 1 µM,0.0001 to 1 µM
"COc1cc(-c2cc3c(N4CCN(C(=O)NCc5ccc(F)cc5)CC4)ncnc3[nH]2)ccn1 [P-0104, N-[(4-fluorophenyl)methyl]-4-[6-(2-methoxy-4-pyridyl)-7H-pyrrolo[2,3-d]pyrimidin-4-yl]piperazine-1-carboxamide]",10 to 200 µM,1 to 10 µM
"COc1cc(-c2cc3c(N4CCN(C(=O)Nc5ccc(OC(F)(F)F)cc5)CC4)ncnc3[nH]2)ccn1 [P-0117, 4-[6-(2-methoxy-4-pyridyl)-7H-pyrrolo[2,3-d]pyrimidin-4-yl]-N-[4-(trifluoromethoxy)phenyl]piperazine-1-carboxamide]",0.0001 to 1 µM,10 to 200 µM
"O=C(NCc1ccc(F)cc1)N1CCN(c2ncnc3cc(-c4cnn(CCN5CCOCC5)c4)sc23)CC1 [P-0624, N-[(4-fluorophenyl)methyl]-4-[6-[1-(2-morpholinoethyl)pyrazol-4-yl]thieno[3,2-d]pyrimidin-4-yl]piperazine-1-carboxamide]",1 to 10 µM,0.0001 to 1 µM
"C[C@@H]1CN(c2ncnc3[nH]c(-c4ccncc4)cc23)CCN1C(=O)Nc1ccc(OC(F)(F)F)cc1 [P-0063, (2R)-2-methyl-4-[6-(4-pyridyl)-7H-pyrrolo[2,3-d]pyrimidin-4-yl]-N-[4-(trifluoromethoxy)phenyl]piperazine-1-carboxamide]",0.0001 to 1 µM,0.0001 to 1 µM
"Cn1cc(-c2cc3c(N4CCC(NS(=O)(=O)c5cc6ccccc6s5)CC4)ncnc3[nH]2)cn1 [P-0470, N-[1-[6-(1-methylpyrazol-4-yl)-7H-pyrrolo[2,3-d]pyrimidin-4-yl]-4-piperidyl]benzothiophene-2-sulfonamide]",0.0001 to 1 µM,0.0001 to 1 µM
"C[C@H](NC(=O)N1CCN(c2ncnc3[nH]c(-c4cnn(C)c4)cc23)CC1)c1ccc(F)cc1 [P-0094, N-[(1S)-1-(4-fluorophenyl)ethyl]-4-[6-(1-methylpyrazol-4-yl)-7H-pyrrolo[2,3-d]pyrimidin-4-yl]piperazine-1-carboxamide]",1 to 10 µM,0.0001 to 1 µM
"O=C(Nc1cccc(C(F)(F)F)c1)N1CCN(c2ncnc3[nH]ccc23)CC1 [P-0167, 4-(7H-pyrrolo[2,3-d]pyrimidin-4-yl)-N-[3-(trifluoromethyl)phenyl]piperazine-1-carboxamide]",10 to 200 µM,10 to 200 µM
"CS(=O)(=O)N1CC=C(c2cc3ncnc(N4CCN(C(=O)NCc5ccc(F)cc5)CC4)c3s2)CC1 [P-0568, N-[(4-fluorophenyl)methyl]-4-[6-(1-methylsulfonyl-3,6-dihydro-2H-pyridin-4-yl)thieno[3,2-d]pyrimidin-4-yl]piperazine-1-carboxamide]",1 to 10 µM,0.0001 to 1 µM
"Cc1ccc(-c2cc3c(N4CCN(c5nc6ccccc6[nH]5)CC4)ncnc3[nH]2)cn1 [P-0013, 4-[4-(1H-benzimidazol-2-yl)piperazin-1-yl]-6-(6-methyl-3-pyridyl)-7H-pyrrolo[2,3-d]pyrimidine]",1 to 10 µM,0.0001 to 1 µM
"CCc1ccc(S(=O)(=O)NC2CCN(c3ncnc4[nH]c(C)cc34)CC2)cc1 [P-0674, 4-ethyl-N-[1-(6-methyl-7H-pyrrolo[2,3-d]pyrimidin-4-yl)-4-piperidyl]benzenesulfonamide]",10 to 200 µM,1 to 10 µM
"Cc1ccc(S(=O)(=O)Nc2ccc(-c3ncnc4[nH]c(C)cc34)cc2)cn1 [P-0301, 6-methyl-N-[4-(6-methyl-7H-pyrrolo[2,3-d]pyrimidin-4-yl)phenyl]pyridine-3-sulfonamide]",1 to 10 µM,0.0001 to 1 µM
"CCCNS(=O)(=O)N1CCN(c2ncnc3[nH]c(-c4ccccc4)cc23)CC1 [P-0241, 4-(6-phenyl-7H-pyrrolo[2,3-d]pyrimidin-4-yl)-N-propyl-piperazine-1-sulfonamide]",1 to 10 µM,0.0001 to 1 µM
"COc1cc([C@H](C)NC(=O)N2CCN(c3ncnc4[nH]c(-c5ccc(F)cc5)cc34)C[C@H]2C)ccc1F [P-0004, (2R)-N-[(1S)-1-(4-fluoro-3-methoxy-phenyl)ethyl]-4-[6-(4-fluorophenyl)-7H-pyrrolo[2,3-d]pyrimidin-4-yl]-2-methyl-piperazine-1-carboxamide]",10 to 200 µM,0.0001 to 1 µM
"CC1CN(c2ncnc3[nH]c(-c4ccncc4)cc23)CCN1C(=O)Nc1ccccc1 (stereo not shown) [P-0068, 2-methyl-N-phenyl-4-[6-(4-pyridyl)-7H-pyrrolo[2,3-d]pyrimidin-4-yl]piperazine-1-carboxamide]",1 to 10 µM,1 to 10 µM
"CN(C)c1ccc(NC(=O)N2CCN(c3ncnc4[nH]c(-c5ccc(C#N)cc5)cc34)CC2)cc1 [P-0070, 4-[6-(4-cyanophenyl)-7H-pyrrolo[2,3-d]pyrimidin-4-yl]-N-(4-dimethylaminophenyl)piperazine-1-carboxamide]",1 to 10 µM,1 to 10 µM
"CNS(=O)(=O)c1ccc(-c2ncnc3[nH]c(-c4ccc(F)cc4)cc23)cc1 [P-0430, 4-[6-(4-fluorophenyl)-7H-pyrrolo[2,3-d]pyrimidin-4-yl]-N-methyl-benzenesulfonamide]",1 to 10 µM,0.0001 to 1 µM
"CCOc1ccc(NC(=O)N2CCN(c3ncnc4[nH]c(C)cc34)CC2)cc1 [P-0181, N-(4-ethoxyphenyl)-4-(6-methyl-7H-pyrrolo[2,3-d]pyrimidin-4-yl)piperazine-1-carboxamide]",10 to 200 µM,10 to 200 µM
"COc1cc(-c2cc3c(N4CCN(C(=O)N[C@@H](C)c5ccc(F)cc5)[C@H](C)C4)ncnc3[nH]2)ccn1 [P-0695, (2R)-N-[(1S)-1-(4-fluorophenyl)ethyl]-4-[6-(2-methoxy-4-pyridyl)-7H-pyrrolo[2,3-d]pyrimidin-4-yl]-2-methyl-piperazine-1-carboxamide]",10 to 200 µM,0.0001 to 1 µM
"C[C@H](NC(=O)N1CC=C(c2ncnc3cc(-c4ccc(F)cc4)sc23)CC1)c1cccc(Cl)c1 [P-0579, N-[(1S)-1-(3-chlorophenyl)ethyl]-4-[6-(4-fluorophenyl)thieno[3,2-d]pyrimidin-4-yl]-3,6-dihydro-2H-pyridine-1-carboxamide]",10 to 200 µM,1 to 10 µM
"COc1cccc([C@H](C)NC(=O)N2CCN(c3ncnc4cc(N5CCC(F)(F)CC5)sc34)CC2(C)C)c1 [P-0680, 4-[6-(4,4-difluoro-1-piperidyl)thieno[3,2-d]pyrimidin-4-yl]-N-[(1S)-1-(3-methoxyphenyl)ethyl]-2,2-dimethyl-piperazine-1-carboxamide]",1 to 10 µM,0.0001 to 1 µM
"C[C@H](NC(=O)N1CCN(c2ncnc3[nH]c(-c4ccc(F)cc4)cc23)CC1)c1cccc2ccccc12 [P-0155, 4-[6-(4-fluorophenyl)-7H-pyrrolo[2,3-d]pyrimidin-4-yl]-N-[(1S)-1-(1-naphthyl)ethyl]piperazine-1-carboxamide]",1 to 10 µM,0.0001 to 1 µM
"C[C@H](NC(=O)N1CCN(c2ncnc3[nH]c(-c4ccc(F)cc4)cc23)CC1)c1cccc(OC(F)(F)F)c1 [P-0075, 4-[6-(4-fluorophenyl)-7H-pyrrolo[2,3-d]pyrimidin-4-yl]-N-[(1S)-1-[3-(trifluoromethoxy)phenyl]lethyl]piperazine-1-carboxamide]",10 to 200 µM,1 to 10 µM
